Entries after “also recorded” stand apart in the source; their conditions may differ.
Key:
PPM1B [1] = target: T1, PPM1B (Homo sapiens, UniProt O75688); assay: Fluorescence quenching assay (fluorescence titration); type: binding; conditions: PPM1B 8 μM, 25°C, excitation 280 nm, emission 332 nm; read-out: dissociation constant Kd
T1 construct: inferred from pET-28a vector and Ni-NTA purification; made in house; host or cells: Escherichia coli BL21
T1 sequence (O75688 1-479): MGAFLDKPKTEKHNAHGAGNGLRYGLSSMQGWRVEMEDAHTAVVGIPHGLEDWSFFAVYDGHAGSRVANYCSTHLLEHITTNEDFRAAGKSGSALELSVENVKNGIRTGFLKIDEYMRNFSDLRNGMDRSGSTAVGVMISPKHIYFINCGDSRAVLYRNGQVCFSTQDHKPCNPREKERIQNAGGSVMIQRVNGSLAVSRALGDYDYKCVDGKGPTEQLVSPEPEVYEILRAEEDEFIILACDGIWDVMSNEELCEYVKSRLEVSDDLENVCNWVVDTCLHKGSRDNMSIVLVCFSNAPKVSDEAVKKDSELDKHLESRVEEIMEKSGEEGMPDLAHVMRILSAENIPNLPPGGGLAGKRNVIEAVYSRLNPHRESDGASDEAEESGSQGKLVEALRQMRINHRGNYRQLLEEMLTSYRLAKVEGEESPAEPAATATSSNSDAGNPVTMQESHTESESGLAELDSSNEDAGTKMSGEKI
Experimental: The interaction between PPM1B recombinant proteins and compound HN252 was determined by fluorescence titration as previously described. ^20 PPM1B proteins were dialysed against PBS and incubated with different concentrations of HN252. The fluorescent quenching was conducted at 25°C, and fluorescence spectra were recorded by Cytation 5 Multi‐Mode Plate Reader (BioTek) using excitation at 280 nm and emission at 332 nm. The dissociation constant (Kd) of HN252 to PPM1B was calculated as previously described. ^20

LYP = target: T2, LYP (Homo sapiens, UniProt Q9Y2R2); assay: pNPP hydrolysis phosphatase assay (selectivity panel); type: biochemical; conditions: pNPP as substrate
T2 sequence (Q9Y2R2 1-807): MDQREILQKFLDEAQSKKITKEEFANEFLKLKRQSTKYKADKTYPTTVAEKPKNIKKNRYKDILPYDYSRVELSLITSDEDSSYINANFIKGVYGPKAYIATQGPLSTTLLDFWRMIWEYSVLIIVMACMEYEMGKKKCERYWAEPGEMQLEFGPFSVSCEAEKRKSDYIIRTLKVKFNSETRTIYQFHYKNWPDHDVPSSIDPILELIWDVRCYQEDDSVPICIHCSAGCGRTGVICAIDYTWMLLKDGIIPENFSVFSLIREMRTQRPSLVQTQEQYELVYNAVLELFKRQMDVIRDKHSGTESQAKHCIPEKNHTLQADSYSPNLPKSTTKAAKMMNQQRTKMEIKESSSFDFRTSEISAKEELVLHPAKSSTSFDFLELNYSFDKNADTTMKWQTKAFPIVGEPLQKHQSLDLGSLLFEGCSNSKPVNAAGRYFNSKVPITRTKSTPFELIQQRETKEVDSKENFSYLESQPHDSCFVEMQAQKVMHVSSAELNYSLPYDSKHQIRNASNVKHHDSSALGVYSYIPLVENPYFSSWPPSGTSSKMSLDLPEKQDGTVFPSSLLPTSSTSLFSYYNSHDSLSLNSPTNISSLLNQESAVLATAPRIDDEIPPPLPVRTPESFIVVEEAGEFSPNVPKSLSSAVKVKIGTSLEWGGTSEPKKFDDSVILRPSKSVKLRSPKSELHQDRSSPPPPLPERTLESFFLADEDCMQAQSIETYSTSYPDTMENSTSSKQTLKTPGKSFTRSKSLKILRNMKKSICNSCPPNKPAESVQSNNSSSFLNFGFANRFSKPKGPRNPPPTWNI

[2] = tested on: HL7702 cells with PPM1B shRNA; assay: Phospho Explorer Antibody Microarray, PPM1B knockdown plus HN252; conditions: in the presence of HN252
Experimental: Phosphorylation profiling was performed by using the Phospho Explorer Antibody Microarray from Full Moon BioSystems, Inc (Sunnyvale, CA), according to the protocol which was previously described. ^24 In brief, cell lysates obtained from HL7702 cells treated by HN252 or DMSO for different hours or transfected with lentiviral vectors carrying shRNAs for 36 h were biotinylated with the Antibody Array Assay Kit (Full Moon BioSystems, Inc), and the data were analysed with the GenePixTM Pro 4.0 image analysis software.

YPH = YPH (Yersinia enterocolitica, UniProt P15273); type: biochemical
Chain of YPH (P15273 163-468 limits assumed): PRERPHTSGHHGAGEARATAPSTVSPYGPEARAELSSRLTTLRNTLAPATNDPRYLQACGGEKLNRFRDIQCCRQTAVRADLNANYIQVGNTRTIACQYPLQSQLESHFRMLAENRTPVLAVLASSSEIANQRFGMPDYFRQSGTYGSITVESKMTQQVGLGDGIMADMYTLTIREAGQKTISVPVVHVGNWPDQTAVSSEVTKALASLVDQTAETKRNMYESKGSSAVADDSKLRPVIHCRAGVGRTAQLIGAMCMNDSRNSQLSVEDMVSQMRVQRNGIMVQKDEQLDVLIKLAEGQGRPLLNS

PPM1B [3] = target: T1, PPM1B; assay: pNPP hydrolysis phosphatase kinetic assay; type: biochemical
Experimental: Escherichia coli BL21 strain was transformed with pET‐28a bacterial expression vector harbouring PPM1B and its mutants. ^17 The fusion proteins were induced to be expressed with 0.5 mM isopropyl‐β‐D‐thiogalactoside (IPTG) and purified from bacterial lysate by Ni‐NTA chromatographic matrices (Qiagen) and AKTA FPLC (GE Healthcare Life Sciences) using a Superdex Increase 200 column.
The kinetic assays of PPM1B were carried out at 37°C in 0.1 M acetic acid buffer (50 mM Tris, 40 mM Mn^2+, pH 7.0). The p‐nitrophenyl phosphate (pNPP, Sigma) was used as the substrate which could be conveniently measured at 405 nm. Reactions were started by addition of pNPP to a reaction mixture containing PPM1B (0.4 μM PPM1B, final concentration) and various concentrations of HN252 and stopped by addition of 0.5 M EDTA (pH 10.0) after an appropriate time. The Km value of PPM1B towards pNPP hydrolysis (3.6 mM for pNPP) was used to determine the IC50. The IC50 values, the inhibition constant Ki and inhibition pattern were evaluated as previously described. ^18 The kinetic assays of HN252 towards to other protein phosphatases were carried out as previously described. ^19

PRL = assay: pNPP hydrolysis phosphatase assay (selectivity panel); type: biochemical; conditions: pNPP as substrate

For `Nc1cc(-c2ccc(-c3ccc(O)c(O)c3)cc2)ccc1C(=O)O` [HN252], the Kd (PPM1B [1]) was 42.3 ± 6.47 µM, the IC50 (LYP) was 98.2 ± 11.7 µM and the “number of proteins with further enhanced phosphorylation compared to PPM1B knockdown (>1.5-fold)” value [2] was 8. The IC50 (YPH) was 77.2 ± 7.95 µM, the inhibition pattern (PPM1B [3]; Lineweaver-Burk plot, pNPP hydrolysis, pH 7.0, 37°C) was “competitive inhibition; also recorded: classical competitive inhibitor” and the Ki (PPM1B [3]; Lineweaver-Burk, pNPP, pH 7.0, 37°C, 0.4 μM PPM1B, 40 mM Mn2+) was 0.52 ± 0.06 µM. For the same molecule, the IC50 (PPM1B [3]; pNPP substrate, 0.4 μM PPM1B, 40 mM Mn2+, pH 7.0, 37°C, wild type) was 0.76 µM, the “selectivity: increase in potency against PPM1B than other PSPs” value (PPM1B [3]; versus PPM1F, PPM1G, PPM1K, PHLPP2, PPM1A a notable exception) was “about 30 fold” and the IC50 (PRL) was over 50 µM.
